Source: US10538567B2, “Compounds as peptidic trigonal GLP1/glucagon/GIP receptor agonists” (priority 2016, dated 2020)
Numbered stars: 1 amine (or outer) side, 2 acyl side, 3 side chain; on linkers, the order of the positions; unused ones are H or OH. Square brackets hold non-standard residues; d marks the D form. Side chains are listed from the residue outwards. Peptide text beside a SMILES is read from it. * marks the point of attachment. γGlu = O=C(O)[C@H](CCC(=O)[*:2])N[*:1]; Palmitoyl = CCCCCCCCCCCCCCCC(=O)*; AEEA = NCCOCCOCC(=O)O; Aib = CC(C)(N)C(=O)O

Columns and labels:
Format in all cases: physicochemical
[1] = Chemical stability assessment, UPLC-UV purity loss in buffer system A; conditions: 1 mg/ml, 25 mM acetate buffer pH 4.5 with m-cresol
Description: Prior to the chemical stability measurement of a peptide batch, its purity was determined through UPLC/MS. For stability testing the target concentration was 1 mg pure compound/ml. Therefore solutions from solid samples were prepared in a buffer system with a concentration of 1 mg/mL compound based on the previously determined % purity:
Chemical stability buffer system A) 25 mM acetate buffer pH 4.5, 3 mg/mL L-Methionine, 2.7 mg/mL m-cresol, 18 mg/mL Glycerol 85% Chemical stability buffer system B) 25 mM phosphate buffer pH 6.0, 3 mg/mL L-Methionine, 2.7 mg/mL m-cresol, 18 mg/mL Glycerol 85%
Peptide solutions were filtered through […] pore size and filled into aliquots under aseptic conditions. At starting point, UPLC-UV was performed by injection of 2 μl of the undiluted sample.
For chemical stability testing, aliquots were stored for 28 days at 5 and 40° C. After this time course the samples were centrifuged for 15 min at 2500 RCF. Then 2 μl of the undiluted supernatant were analysed with UPLC-UV.
The chemical stability was rated through the relative loss of purity calculated by the equation: [(purity at starting point)−(purity after 28 days at X° C.)]/(purity at starting point)]*100%
The purity is calculated as
[(peak area peptide)/(total peak area)]*100%
Peptide samples were prepared in Chemical stability buffer system A and the stability was assessed as described in Methods.

[2] = Dynamic light scattering, hydrodynamic radius as surrogate for DLS interaction parameter kD; conditions: for Delta Rh [nm] = Rh5 − Rh1: DLS buffer system A pH 4.5; for Rh1 [nm] c = 1 mg/ml / Rh5 [nm] c = 5 mg/ml: hydrodynamic radius, DLS buffer system A pH 4.5, method C, 25° C.
Description: A monochromatic and coherent light beam (laser) is used to illuminate the liquid sample. Dynamic Light Scattering (DLS) measures light scattered from particles (1 nm≤radius≤1 μm) that undergo Brownian motion. This motion is induced by collisions between the particles and solvent molecules that themselves are moving due to their thermal energy. The diffusional motion of the particles results in temporal fluctuations of the scattered light [Pecora, R. Dynamic Light Scattering: Applications of Photon Correlation Spectroscopy, Plenum Press, 1985].
The scattered light intensity fluctuations are recorded and transformed into an autocorrelation function. By fitting the autocorrelation curve to an exponential function, the diffusion coefficient D of the particles in solution can be derived. The diffusion coefficient is then used to calculate the hydrodynamic radius Rh (or apparent Stokes radius) through the Stokes-Einstein equation assuming spherical particles. This calculation is defined in ISO 13321 and ISO 22412 [International Standard ISO13321 Methods for Determination of Particle Size Distribution Part 8: Photon Correlation Spectroscopy, International Organisation for Standardisation (ISO) 1996; International Standard ISO22412 Particle Size Analysis—Dynamic Light Scattering, International Organisation for Standardisation (ISO) 2008].
For every peptide solution, the hydrodynamic radius Rh and the diffusion constant D (related via the Stokes-Einstein equation) were determined as an average over triplicates. Both parameters were determined at different peptide concentrations (e.g., Rh1 and D1: 1 mg/ml and Rh5 and D5: 5 mg/ml) in the same buffer system. The difference of these parameters between low and high peptide concentration is a surrogate for the DLS interaction parameter kD. Rh5<Rh1 or D5>D1 correspond to kD>0 and therefore to repulsive inter-particle interactions that result in improved physical (or colloidal) stability.
DLS buffer system A) 25 mM acetate buffer pH 4.5, 3 mg/mL L-Methionine, 2.7 mg/mL m-cresol, 18 mg/mL Glycerol 85%
DLS Method C: DLS measurements were performed on a DynaPro Plate Reader II (Wyatt Technology, Santa Barbara, Calif., US) and using one of the following black, low volume, and non-treated plates: polystyrene 384 assay plate with clear bottom (Corning, N.Y., US), polystyrene 96 assay plate with clear bottom (Corning, N.Y., US), cyclo olefin polymer (COP) 384 assay plate with clear bottom (Aurora, Mont., US), or polystyrene 384 assay plate with clear bottom (Greiner Bio-One, Germany). The data were processed with the Dynamics software provided by Wyatt Technology. Parameters of the particle size distribution were determined with non-negatively constrained least squares (NNLS) methods using DynaLS algorithms. Measurements were taken at 25° C. with an 830 nm laser light source at an angle of 158°.
The hydrodynamic radius Rh of peptide samples was determined at different peptide concentrations (1 mg/ml and 5 mg/ml) in DLS buffer system A using DLS method C as described in Methods as surrogate for the DLS interaction parameter kD.

[3] = Thioflavin T (ThT) assay for physical stability (fibrillation); conditions: 3 mg/ml, 100 mM acetate pH 4.5 with m-cresol, 37° C. shaking
Description: Low physical stability of a peptide solution may lead to amyloid fibril formation, which is observed as well-ordered, thread-like macromolecular structures in the sample, which eventually may lead to gel formation. Thioflavin T (ThT) is widely used to visualize and quantify the presence of misfolded protein aggregates. [Biancalana et al. (2010) Biochimica et Biophysica Acta. 1804 (7): 1405-1412]. […] Enzymol. 309, 274-284]. The time course for fibril formation often follows the characteristic shape of a sigmoidal curve and can be separated into three regions: a lag phase, a fast growth phase, and a plateau phase.
The typical fibril formation process starts with the lag phase in which the amount of partially folded peptide turned into fibrils is not significant enough to be detected. The lag-time corresponds to the time the critical mass of the nucleus is built. Afterwards, a drastic elongation phase follows and fibril concentration increases rapidly.
Investigations were carried out to determine fibrillation tendencies under stress conditions by shaking at 37° C. within Fluoroskan Ascent FL.
For the tests in Fluoroskan Ascent FL, 200 μL sample were placed into a 96 well mictrotiter plate PS, flat bottom, Greiner Fluotrac No. 655076. Plates were sealed with Scotch Tape (Quiagen). Samples were stressed by continuous cycles of 10 s shaking at 960 rpm and 50 s rest period at 37° C. The kinetic was monitored by measuring fluorescence intensity every 20 minutes.
Peptides were diluted in a buffer system to a final concentration of 3 mg/ml. 20 μL of a 10.1 mM ThT solution in H2O were added to 2 mL of peptide solution to receive a final concentration of 100 μM ThT. For each sample eight replicates were tested.
Tht buffer system A) 100 mM Acetate pH 4.5 including m-cresol (100 mM Natriumacetat trihydrat, pH adjustment using 2N CH3COOH, 2.7 mg/mL m-cresol) Tht buffer system B) 100 mM citrate buffer pH 6.0
Lag time in hours in Thioflavin T (ThT) assay of peptide samples was determined in ThT buffer system A as described in Methods.

| Chemical stability [relative purity loss 28 days 40° C.] (%) at pH 4.5 [1] [%] | Delta Rh [nm] = Rh5 − Rh1 [2] [nm] | Rh1 [nm] c = 1 mg/ml [2] [nm] | Rh5 [nm] c = 5 mg/ml [2] [nm] | Lag time before increase [3] [h] | Structure (SMILES) |
| --- | --- | --- | --- | --- | --- |
| 8.1 | −0.1 | 3.0 | 2.9 | >45 | CCCCCCCCCCCCCCCC(=O)NCCOCCOCC(=O)N[C@@H](CCC(=O)N[C@@H](CCC(=O)NCCCC[C@H](NC(=O)[C@H](CC(C)C)NC(=O)[C@H](CCCCN)NC(=O)[C@H](CO)NC(=O)[C@H](CC(C)C)NC(=O)[C@H](CC(=O)O)NC(=O)[C@H](CO)NC(=O)[C@@H](NC(=O)[C@H](Cc1ccccc1)NC(=O)[C@@H](NC(=O)CNC(=O)[C@H](Cc1c[nH]cn1)NC(=O)C(C)(C)NC(=O)[C@@H](N)Cc1c[nH]cn1)[C@@H](C)O)[C@@H](C)O)C(=O)N[C@@H](CCC(=O)O)C(=O)N[C@@H](CCC(=O)O)C(=O)N[C@@H](CCC(N)=O)C(=O)N[C@@H](CCCNC(=N)N)C(=O)N[C@@H](CCC(N)=O)C(=O)N[C@@H](CCCCN)C(=O)N[C@@H](CCC(=O)O)C(=O)N[C@@H](Cc1ccccc1)C(=O)N[C@H](C(=O)N[C@@H](CCC(=O)O)C(=O)N[C@@H](Cc1c[nH]c2ccccc12)C(=O)N[C@@H](CC(C)C)C(=O)N[C@@H](CCCCN)C(=O)N[C@@H](C)C(=O)NCC(=O)NCC(=O)N[C@@H](Cc1c[nH]cn1)C(=O)N1CCC[C@H]1C(=O)N[C@@H](CO)C(=O)NC(C)(C)C(=O)N[C@@H](CCCCN)C(=O)N1CCC[C@H]1C(=O)N1CCC[C@H]1C(=O)N1CCC[C@H]1C(=O)N[C@@H](CCCCN)C(N)=O)[C@@H](C)CC)C(=O)O)C(=O)O [SEQ ID NO: 14, H-Aib-H-G-T-F-T-S-D-L-S-K-L-K[gGlu-gGlu-AEEA-Palm]-E-E-Q-R-Q-K-E-F-I-E-W-L-K-A-G-G-H-P-S-Aib-K-P-P-P-K-NH2] (H-H[Aib]HGTFTSDLSKLK([γGlu-γGlu-AEEA-Palmitoyl])EEQRQKEFIEWLKAGGHPS[Aib]KPPPK-NH2) |
| 7.2 | −0.4 | 3.0 | 2.6 | >45 | CCCCCCCCCCCCCCCC(=O)NCCOCCOCC(=O)N[C@@H](CCC(=O)N[C@@H](CCC(=O)NCCCC[C@H](NC(=O)[C@H](CC(C)C)NC(=O)[C@H](CCCCN)NC(=O)[C@H](CO)NC(=O)[C@H](CC(C)C)NC(=O)[C@H](CC(=O)O)NC(=O)[C@H](CO)NC(=O)[C@@H](NC(=O)[C@H](Cc1ccccc1)NC(=O)[C@@H](NC(=O)CNC(=O)[C@H](Cc1c[nH]cn1)NC(=O)C(C)(C)NC(=O)[C@@H](N)Cc1c[nH]cn1)[C@@H](C)O)[C@@H](C)O)C(=O)N[C@@H](CCC(=O)O)C(=O)N[C@@H](CCC(=O)O)C(=O)N[C@@H](CCC(N)=O)C(=O)N[C@@H](CCCNC(=N)N)C(=O)N[C@@H](CCC(N)=O)C(=O)N[C@@H](CCCCN)C(=O)N[C@@H](CCC(=O)O)C(=O)N[C@@H](Cc1ccccc1)C(=O)N[C@H](C(=O)N[C@@H](CCC(=O)O)C(=O)N[C@@H](Cc1c[nH]c2ccccc12)C(=O)N[C@@H](CC(C)C)C(=O)N[C@@H](CCCCN)C(=O)N[C@@H](C)C(=O)N[C@H](C)C(=O)NCC(=O)N[C@@H](Cc1c[nH]cn1)C(=O)N1CCC[C@H]1C(=O)N[C@@H](CO)C(=O)NC(C)(C)C(=O)N[C@@H](CCCCN)C(=O)N1CCC[C@H]1C(=O)N1CCC[C@H]1C(=O)N1CCC[C@H]1C(=O)N[C@@H](CCCCN)C(N)=O)[C@@H](C)CC)C(=O)O)C(=O)O [SEQ ID NO: 15, H-Aib-H-G-T-F-T-S-D-L-S-K-L-K[gGlu-gGlu-AEEA-Palm]-E-E-Q-R-Q-K-E-F-1-E-W-L-K-A-dAla-G-H-P-S-Aib-K-P-P-P-K-NH2] (H-H[Aib]HGTFTSDLSKLK([γGlu-γGlu-AEEA-Palmitoyl])EEQRQKEFIEWLKA[dA]GHPS[Aib]KPPPK-NH2) |
